Patent US12678446B2 (PFIZER INC., priority 2020, dated 2026)
pEC50: −log10 of the molar value.

Legend:
[1] = test system: RSV (RSV A2 ECACC, 0709161v); test: RSV plaque reduction assay; assay type: cell-based, respiratory syncytial virus; details: human respiratory syncytial virus, HepG2, read-out: RSV A2 Plaque EC50, RSV A2 in Hep-G2 cells; mean of at least two experiments unless noted (n = 1)
Outline: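 Eight-point compound dilutions were premixed with RSV A2 (100 PFU/well) and applied to confluent Hep-G2 cells for 2 h, followed by a 2-day incubation at 37° C. under compound-containing 0.8% CMC overlay. EC50 comes from immunostained plaque counts relative to untreated virus wells, averaged over ≥2 runs.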

cell toxicity CC50 = assay type: cell-based; details: human; Hep-G2 cells; mean of at least two experiments; read-out: Cell Cytotoxicity CC50

## C[C@@H]1CCn2nc(-c3cnn(C)c3)c(C(=O)N[C@H]3N=C(c4ccccc4)c4cccc(F)c4NC3=O)c2O1 [Example 98, (5R)-N-[(3S)-9-fluoro-2-oxo-5-phenyl-1,3-dihydro-1,4-benzodiazepin-3-yl]-5-methyl-2-(1-methylpyrazol-4-yl)-6,7-dihydro-5H-pyrazolo[5,1-b][1,3]oxazine-3-carboxamide]
[1]
  pEC50: 7.10
Cell toxicity CC50
  CC50: > 25000 nM

## C[C@@H]1CCn2nc(Nc3ccc(F)cc3)c(C(=O)N[C@H]3N=C(c4ccccc4)c4cccc(F)c4NC3=O)c2O1 [Example 97, (5R)-2-(4-Fluoroanilino)-N-[(3S)-9-fluoro-2-oxo-5-phenyl-1,3-dihydro-1,4-benzodiazepin-3-yl]-5-methyl-6,7-dihydro-5H-pyrazolo[5,1-b][1,3]oxazine-3-carboxamide]
[1]
  pEC50: 6.36
Cell toxicity CC50
  CC50: > 25000 nM

## CC(C)Nc1ccc(-c2nn3c(c2C(=O)N[C@H]2N=C(c4ccccc4)c4cccc(F)c4NC2=O)O[C@@H](C)CC3)c(F)n1 [Example 31, (5S)-N-[(3S)-9-fluoro-2-oxo-5-phenyl-1,3-dihydro-1,4-benzodiazepin-3-yl]-2-[2-fluoro-6-(propan-2-ylamino)pyridin-3-yl]-5-methyl-6,7-dihydro-5H-pyrazolo[5,1-b][1,3]oxazine-3-carboxamide]
[1]
  pEC50: 7.96
Cell toxicity CC50
  CC50: > 25000 nM

## COc1cc(-c2nn3c(c2C(=O)N[C@H]2N=C(c4ccccc4)c4ccccc4NC2=O)O[C@H](C)CC3)ccn1 [Example 49, (5R)-2-(2-Methoxypyridin-4-yl)-5-methyl-N-[(3S)-2-oxo-5-phenyl-1,3-dihydro-1,4-benzodiazepin-3-yl]-6,7-dihydro-5H-pyrazolo[5,1-b][1,3]oxazine-3-carboxamide]
[1]
  pEC50: 6.61
Cell toxicity CC50
  CC50: > 25000 nM

## CC1CCOc2c(C(=O)N[C@H]3N=C(c4ccccc4)c4cccc(F)c4NC3=O)c(-c3ccccc3F)nn21 (stereo partly drawn) [Example 105, N-[(3S)-9-fluoro-2-oxo-5-phenyl-1,3-dihydro-1,4-benzodiazepin-3-yl]-2-(2-fluorophenyl)-7-methyl-6,7-dihydro-5H-pyrazolo[5,1-b][1,3]oxazine-3-carboxamide]
[1]
  pEC50: 7.32
Cell toxicity CC50
  CC50: > 25000 nM

## Cc1ccc(-c2nn3c(c2C(=O)N[C@H]2N=C(c4ccccc4)c4cccc(F)c4NC2=O)O[C@H](C)CC3)cn1 [Example 77, (5R)-5-Methyl-2-(6-methylpyridin-3-yl)-N-[(3S)-9-fluoro-2-oxo-5-phenyl-1,3-dihydro-1,4-benzodiazepin-3-yl]-6,7-dihydro-5H-pyrazolo[5,1-b][1,3]oxazine-3-carboxamide]
[1]
  pEC50: 6.80
Cell toxicity CC50
  CC50: > 25000 nM

## CCNc1ccc(-c2nn3c(c2C(=O)N[C@H]2N=C(c4ccccc4)c4cccc(F)c4NC2=O)OCCC3)cn1 [Example 20, 2-[6-(Ethylamino)pyridin-3-yl]-N-[(3S)-9-fluoro-2-oxo-5-phenyl-1,3-dihydro-1,4-benzodiazepin-3-yl]-6,7-dihydro-5H-pyrazolo[5,1-b][1,3]oxazine-3-carboxamide]
[1]
  pEC50: 7.38
Cell toxicity CC50
  CC50: > 25000 nM

## C[C@@H]1CCn2nc(-c3cn[nH]c3)c(C(=O)N[C@H]3N=C(c4ccccc4)c4cccc(F)c4NC3=O)c2O1 [Example 159, (5R)-N-[(3S)-9-fluoro-2-oxo-5-phenyl-1,3-dihydro-1,4-benzodiazepin-3-yl]-5-methyl-2-(1H-pyrazol-4-yl)-6,7-dihydro-5H-pyrazolo[5,1-b][1,3]oxazine-3-carboxamide]
[1]
  pEC50: 6.40
Cell toxicity CC50
  CC50: > 25000 nM

## O=C(N[C@H]1N=C(c2ccccc2)c2cccc(F)c2NC1=O)c1c(-c2ccccc2F)nn2c1OCC1(CCC1)C2 [Example 185, 2-(2-Fluorophenyl)-N-[(3S)-9-fluoro-2-oxo-5-phenyl-1,3-dihydro-1,4-benzodiazepin-3-yl]spiro[5,7-dihydropyrazolo[5,1-b][1,3]oxazine-6,1′-cyclobutane]-3-carboxamide]
[1]
  pEC50: 7.49
Cell toxicity CC50
  CC50: > 25000 nM

## C[C@@H]1CCn2nc(-c3ccc(F)cc3F)c(C(=O)N[C@H]3N=C(c4ccccc4)c4cccc(F)c4NC3=O)c2O1 [Example 82, (5R)-2-(2,4-Difluorophenyl)-5-methyl-N-[(3S)-9-fluoro-2-oxo-5-phenyl-1,3-dihydro-1,4-benzodiazepin-3-yl]-6,7-dihydro-5H-pyrazolo[5,1-b][1,3]oxazine-3-carboxamide]
[1]
  pEC50: 7.51
Cell toxicity CC50
  CC50: > 25000 nM

## Cc1c(-c2nn3c(c2C(=O)N[C@H]2N=C(c4ccccc4)c4cccc(F)c4NC2=O)O[C@H](C)CC3)cnn1C [Example 121, (5R)-2-(1,5-Dimethylpyrazol-4-yl)-N-[(3S)-9-fluoro-2-oxo-5-phenyl-1,3-dihydro-1,4-benzodiazepin-3-yl]-5-methyl-6,7-dihydro-5H-pyrazolo[5,1-b][1,3]oxazine-3-carboxamide]
[1]
  pEC50: 6.43
Cell toxicity CC50
  CC50: > 25000 nM

## O=C(N[C@H]1N=C(c2ccccc2)c2cccc(F)c2NC1=O)c1c(-c2cccnc2)nn2c1OCCC2 [Example 17, N-[(3S)-9-Fluoro-2-oxo-5-phenyl-1,3-dihydro-1,4-benzodiazepin-3-yl]-2-pyridin-3-yl-6,7-dihydro-5H-pyrazolo[5,1-b][1,3]oxazine-3-carboxamide]
[1]
  pEC50: 6.74
Cell toxicity CC50
  CC50: > 25000 nM

## O=C(N[C@H]1N=C(c2ccccc2)c2ccccc2NC1=O)c1c(-c2c(F)cccc2F)nn2c1OC(CO)CC2 (single isomer, unassigned) [Example 188-1, (5R*)-2-(2,6-Difluorophenyl)-5-(hydroxymethyl)-N-[(3S)-2-oxo-5-phenyl-1,3-dihydro-1,4-benzodiazepin-3-yl]-6,7-dihydro-5H-pyrazolo[5,1-b][1,3]oxazine-3-carboxamide]
[1]
  pEC50: 6.85
Cell toxicity CC50
  CC50: > 25000 nM

## O=C(N[C@H]1N=C(c2ccccc2)c2cccc(F)c2NC1=O)c1c(-c2c(F)cccc2F)nn2c1OC(CO)CC2 (single isomer, unassigned) [Example 189-1, (5R*)-2-(2,6-Difluorophenyl)-N-[(3S)-9-fluoro-2-oxo-5-phenyl-1,3-dihydro-1,4-benzodiazepin-3-yl]-5-(hydroxymethyl)-6,7-dihydro-5H-pyrazolo[5,1-b][1,3]oxazine-3-carboxamide]
[1]
  pEC50: 7.39
Cell toxicity CC50
  CC50: > 25000 nM

## O=C(N[C@H]1N=C(c2ccccc2)c2cccc(F)c2NC1=O)c1c(-c2ccncc2F)nn2c1OCCC2 [Example 80, N-[(3S)-9-fluoro-2-oxo-5-phenyl-1,3-dihydro-1,4-benzodiazepin-3-yl]-2-(3-fluoropyridin-4-yl)-6,7-dihydro-5H-pyrazolo[5,1-b][1,3]oxazine-3-carboxamide]
[1]
  pEC50: 7.19
Cell toxicity CC50
  CC50: > 25000 nM

## COc1cccc(F)c1-c1nn2c(c1C(=O)N[C@H]1N=C(c3ccccc3)c3cccc(F)c3NC1=O)OCCC2 [Example 139, 2-(2-Fluoro-6-methoxyphenyl)-N-[(3S)-9-fluoro-2-oxo-5-phenyl-1,3-dihydro-1,4-benzodiazepin-3-yl]-6,7-dihydro-5H-pyrazolo[5,1-b][1,3]oxazine-3-carboxamide]
[1]
  pEC50: 7.18
Cell toxicity CC50
  CC50: > 25000 nM

## C[C@@H]1CCn2nc(-c3ccc(F)nc3N3C[C@@H]4C[C@H]3CO4)c(C(=O)N[C@H]3N=C(c4ccccc4)c4cccc(F)c4NC3=O)c2O1 (single isomer, unassigned) [Example 89]
[1]
  pEC50: 6.91
Cell toxicity CC50
  CC50: > 25000 nM

## CN(C)Cc1ccc(-c2nn3c(c2C(=O)N[C@H]2N=C(c4ccccc4)c4cccc(F)c4NC2=O)OCCC3)c(F)c1 [Example 100]
[1]
  pEC50: 7.12
Cell toxicity CC50
  CC50: > 25000 nM

## C[C@@H]1CCn2nc(C3CCCCC3)c(C(=O)N[C@H]3N=C(c4ccccc4)c4cccc(F)c4NC3=O)c2O1 [Example 114, (5R)-2-Cyclohexyl-N-[(3S)-9-fluoro-2-oxo-5-phenyl-1,3-dihydro-1,4-benzodiazepin-3-yl]-5-methyl-6,7-dihydro-5H-pyrazolo[5,1-b][1,3]oxazine-3-carboxamide]
[1]
  pEC50: 6.93
Cell toxicity CC50
  CC50: 17100 nM

## CCN(CC)Cc1ccc(-c2nn3c(c2C(=O)N[C@H]2N=C(c4ccccc4)c4cccc(F)c4NC2=O)OCCC3)c(F)c1 [Example 102, 2-[4-(Diethylaminomethyl)-2-fluorophenyl]-N-[(3S)-9-fluoro-2-oxo-5-phenyl-1,3-dihydro-1,4-benzodiazepin-3-yl]-6,7-dihydro-5H-pyrazolo[5,1-b][1,3]oxazine-3-carboxamide]
[1]
  pEC50: 6.87
Cell toxicity CC50
  CC50: > 25000 nM

## C[C@@H]1CCn2nc(-c3ccc(CO)cc3F)c(C(=O)N[C@H]3N=C(c4ccccc4)c4ccccc4NC3=O)c2O1 [Example 154, (5R)-2-[2-Fluoro-4-(hydroxymethyl)phe-nyl]-5-methyl-N-[(3S)-2-oxo-5-phenyl-1,3-dihydro-1,4-benzodiazepin-3-yl]-6,7-dihydro-5H-pyrazolo[5,1-b][1,3]oxazine-3-carboxamide]
[1]
  pEC50: 7.04
Cell toxicity CC50
  CC50: > 25000 nM

## O=C(N[C@H]1N=C(c2ccccc2)c2cccc(F)c2NC1=O)c1c(-c2c(F)cccc2F)nn2c1OCC(CO)C2 (single isomer, unassigned) [Example 129-1, (6R*)-2-(2,6-Difluorophenyl)-N-[(3S)-9-fluoro-2-oxo-5-phenyl-1,3-dihydro-1,4-benzodiazepin-3-yl]-6-(hydroxymethyl)-6,7-dihydro-5H-pyrazolo[5,1-b][1,3]oxazine-3-carboxamide]
[1]
  pEC50: 7.41
Cell toxicity CC50
  CC50: > 25000 nM

## CS(=N)(=O)c1ccc(-c2nn3c(c2C(=O)N[C@H]2N=C(c4ccccc4)c4cccc(F)c4NC2=O)OCCC3)c(F)c1 (stereo partly drawn) [Example 143, 2-[2-Fluoro-4-(methylsulfonimidoyl)phenyl]-N-[(3S)-9-fluoro-2-oxo-5-phenyl-1,3-dihydro-1,4-benzodiazepin-3-yl]-6,7-dihydro-5H-pyrazolo[5,1-b][1,3]oxazine-3-carboxamide]
[1]
  pEC50: 6.83
Cell toxicity CC50
  CC50: > 25000 nM
